The record followed here is ChEMBL document CHEMBL6114934, “Guaiacol-chalcone and nitroguaiacol-chalcone derivatives: In vitro and in silico antibacterial evaluation” (2025).

The subject of experiment [1] is Staphylococcus aureus. The experiment is described as follows: Antibacterial activity against Staphylococcus aureus at 256 ug/ml by broth microdilution method. Type of experiment: functional, organism-based. The conditions noted are these: dose 256.0 µg/ml.
In a further experiment the test system is Klebsiella pneumoniae. The experiment is described as follows: Antibacterial activity against Klebsiella pneumoniae at 256 ug/ml by broth microdilution method. In kind it is functional, organism-based. The conditions noted are these: dose 256.0 µg/ml. (Broth dilution looks for growth in wells or tubes with falling amounts of substance.)
The next experiment has as its system Acinetobacter baumannii. The experiment is described as follows: Antibacterial activity against Acinetobacter baumannii at 256 ug/ml by broth microdilution method. Type of experiment: functional, organism-based. The conditions noted are these: dose 256.0 µg/ml.
The next experiment relates to Pseudomonas aeruginosa. The experiment is described as follows: Antibacterial activity against Pseudomonas aeruginosa at 256 ug/ml by broth microdilution method. In kind it is functional, organism-based. The conditions noted are these: dose 256.0 µg/ml.
The next experiment deals with Klebsiella aerogenes. The experiment is described as follows: Antibacterial activity against Klebsiella aerogenes at 256 ug/ml by broth microdilution method. In kind it is functional, organism-based. The conditions noted are these: dose 256.0 µg/ml.
The subject of experiment [2] is Staphylococcus aureus. The experiment is described as follows: Antibacterial activity against Staphylococcus aureus by broth microdilution method. In kind it is functional.
Experiment [3] relates to Staphylococcus aureus. The experiment is described as follows: Antibacterial activity against methicillin-resistant Staphylococcus aureus by broth microdilution method. Type of experiment: functional.
In experiment [4] the test system is Staphylococcus aureus. The experiment is described as follows: Antibacterial activity against Staphylococcus aureus. In kind it is functional.
Experiment [5] has as its system Staphylococcus aureus. The experiment is described as follows: Antibacterial activity against methicillin-resistant Staphylococcus aureus. Type of experiment: functional.

SMILES strings stand for the structures. In brackets after ≈: the same amount, converted by molar mass. Activity calls are given as the source filed them. No cut-off for these calls is given here. A value given as a limit tells only on which side of the number the result lay.

Regarding `COc1cc(C(=O)/C=C/c2ccc(Cl)cc2Cl)ccc1O`, the outcome in the experiment with Staphylococcus aureus [1], in the experiment with Klebsiella pneumoniae, with Acinetobacter baumannii, with Pseudomonas aeruginosa and in the experiment on Klebsiella aerogenes was inactive.
`COc1cc(C(=O)/C=C/c2ccc(Cl)c(Cl)c2)cc([N+](=O)[O-])c1O`: in the experiment with Staphylococcus aureus [1], the result was Active. In addition, the outcome with Klebsiella pneumoniae, in the experiment on Acinetobacter baumannii, in the experiment with Pseudomonas aeruginosa and in the experiment with Klebsiella aerogenes was inactive. Also, the MIC with Staphylococcus aureus [2] and in the experiment with Staphylococcus aureus [3] was 8 µg/mL (≈ 21.7 µM) each time.
`COc1cc(C(=O)/C=C/c2ccc([N+](=O)[O-])cc2)cc([N+](=O)[O-])c1O`: the result with Staphylococcus aureus [1] was Active. Besides, the result in the experiment with Klebsiella pneumoniae, with Acinetobacter baumannii, with Pseudomonas aeruginosa and with Klebsiella aerogenes was inactive. Besides, the results for the MIC in the experiment on Staphylococcus aureus [2] and against Staphylococcus aureus [3] were 32 µg/mL (≈ 92.9 µM) and 64 µg/mL (≈ 186 µM), respectively.
Turning to `COc1cc(C(=O)/C=C/c2ccc(SC)cc2)cc([N+](=O)[O-])c1O`, the result in the experiment on Staphylococcus aureus [1] was Active. The outcome in the experiment on Klebsiella pneumoniae, in the experiment with Acinetobacter baumannii, in the experiment with Pseudomonas aeruginosa and with Klebsiella aerogenes was inactive. The minimal inhibitory concentration (MIC) is 128 µg/mL (≈ 371 µM) with Staphylococcus aureus [2] and greater than 256 µg/mL against Staphylococcus aureus [3].
For `COc1cc(C(=O)/C=C/c2ccc(Cl)cc2)cc([N+](=O)[O-])c1O`, the result in the experiment with Staphylococcus aureus [1] was Active. The result in the experiment on Klebsiella pneumoniae, with Acinetobacter baumannii, with Pseudomonas aeruginosa and with Klebsiella aerogenes was inactive. For the same compound, the MIC in the experiment on Staphylococcus aureus [2] is 16 µg/mL (≈ 47.9 µM); with Staphylococcus aureus [3], 32 µg/mL (≈ 95.9 µM).
On to `COc1cc(C(=O)/C=C/c2cccc(C(F)(F)F)c2)cc([N+](=O)[O-])c1O`, for which, in the experiment on Staphylococcus aureus [1], the outcome was Active. The result in the experiment with Klebsiella pneumoniae, in the experiment with Acinetobacter baumannii, in the experiment with Pseudomonas aeruginosa and in the experiment on Klebsiella aerogenes was inactive. In addition, the MIC against Staphylococcus aureus [2] came out at 32 µg/mL (≈ 87.1 µM); against Staphylococcus aureus [3] it was 64 µg/mL (≈ 174 µM).
On to `COc1cc(C(=O)/C=C/c2cccc(Cl)c2)cc([N+](=O)[O-])c1O`, for which the result in the experiment with Staphylococcus aureus [1] was Active. Also, the result with Klebsiella pneumoniae, with Acinetobacter baumannii, in the experiment on Pseudomonas aeruginosa and with Klebsiella aerogenes was inactive. Besides, the MIC in the experiment on Staphylococcus aureus [2] was 16 µg/mL (≈ 47.9 µM); with Staphylococcus aureus [3] it was 64 µg/mL (≈ 192 µM).
Turning to `COc1cc(C(=O)/C=C/c2cccc(C(F)(F)F)c2)ccc1O`, the outcome in the experiment on Staphylococcus aureus [1], in the experiment on Klebsiella pneumoniae, with Acinetobacter baumannii, in the experiment on Pseudomonas aeruginosa and in the experiment on Klebsiella aerogenes was inactive.
In the case of `COc1cc(C(=O)/C=C/c2ccc(F)cc2)cc([N+](=O)[O-])c1O`, in the experiment with Staphylococcus aureus [1], the result was Active. Moreover, the result in the experiment on Klebsiella pneumoniae, with Acinetobacter baumannii, with Pseudomonas aeruginosa and with Klebsiella aerogenes was inactive. In addition, the MIC in the experiment with Staphylococcus aureus [2] and in the experiment on Staphylococcus aureus [3] was 64 µg/mL (≈ 202 µM) throughout.
With `CCOc1ccc(/C=C/C(=O)c2ccc(O)c(OC)c2)cc1`, the result with Staphylococcus aureus [1] was Active. Further, the outcome in the experiment with Klebsiella pneumoniae, in the experiment with Acinetobacter baumannii, in the experiment on Pseudomonas aeruginosa and with Klebsiella aerogenes was inactive. The MIC came to 16 µg/mL (≈ 53.6 µM) in the experiment with Staphylococcus aureus [2] and 32 µg/mL (≈ 107 µM) against Staphylococcus aureus [3].
As to `COc1cc(C(=O)/C=C/c2ccc(Cl)c(Cl)c2)ccc1O`, the outcome with Staphylococcus aureus [1], with Klebsiella pneumoniae, with Acinetobacter baumannii, with Pseudomonas aeruginosa and in the experiment on Klebsiella aerogenes was inactive.
For `COc1cc(C(=O)/C=C/c2cccc(F)c2)cc([N+](=O)[O-])c1O`, in the experiment with Staphylococcus aureus [1], the result was Active. Moreover, the outcome in the experiment on Klebsiella pneumoniae, in the experiment with Acinetobacter baumannii, with Pseudomonas aeruginosa and in the experiment on Klebsiella aerogenes was inactive. The figures for the MIC against Staphylococcus aureus [2] and with Staphylococcus aureus [3] were 32 µg/mL (≈ 101 µM) and 64 µg/mL (≈ 202 µM), respectively.
`O=C(/C=C/c1ccc(Cl)c(Cl)c1)c1cc(O)c(O)c([N+](=O)[O-])c1`: the results for the minimum inhibitory concentration (MIC) in the experiment on Staphylococcus aureus [4] and in the experiment on Staphylococcus aureus [5] were 1 µg/mL (≈ 2.82 µM) and 16 µg/mL (≈ 45.2 µM), respectively.
Consider `COc1cc(C(=O)/C=C/c2ccc(Cl)cc2Cl)cc([N+](=O)[O-])c1O`, for which the outcome in the experiment on Staphylococcus aureus [1] was Active. Also, the outcome with Klebsiella pneumoniae, in the experiment with Acinetobacter baumannii, with Pseudomonas aeruginosa and in the experiment on Klebsiella aerogenes was inactive. Further, the MIC against Staphylococcus aureus [2] and in the experiment on Staphylococcus aureus [3] was 256 µg/mL (≈ 695 µM) each time.
For the compound `COc1cc(C(=O)/C=C/c2cccc(Cl)c2)ccc1O`, the result in the experiment with Staphylococcus aureus [1], in the experiment on Klebsiella pneumoniae, in the experiment with Acinetobacter baumannii, with Pseudomonas aeruginosa and in the experiment with Klebsiella aerogenes was inactive.
For the compound `CC(=O)N1N=C(c2cc(O)c(O)c([N+](=O)[O-])c2)CC1c1ccc(Cl)cc1` (centres undefined), the minimum inhibitory concentration (MIC) in the experiment with Staphylococcus aureus [4] was 0.5 µg/mL (≈ 1.33 µM); against Staphylococcus aureus [5] it was 32 µg/mL (≈ 85.2 µM).
On to `COc1cc(C(=O)/C=C/c2ccc(Br)cc2F)ccc1O`, for which the outcome with Staphylococcus aureus [1], in the experiment with Klebsiella pneumoniae, in the experiment with Acinetobacter baumannii, with Pseudomonas aeruginosa and with Klebsiella aerogenes was inactive.
For the compound `COc1cc(C(=O)/C=C/c2ccc(Cl)cc2)ccc1O`, the result in the experiment with Staphylococcus aureus [1], in the experiment on Klebsiella pneumoniae, with Acinetobacter baumannii, with Pseudomonas aeruginosa and in the experiment on Klebsiella aerogenes was inactive.
Consider `COc1cc(C(=O)/C=C/c2cccc(F)c2)ccc1O`, for which the result in the experiment on Staphylococcus aureus [1], in the experiment on Klebsiella pneumoniae, in the experiment with Acinetobacter baumannii, with Pseudomonas aeruginosa and in the experiment with Klebsiella aerogenes was inactive.
As for `COc1cc(C(=O)/C=C/c2ccc(SC)cc2)ccc1O`, the result in the experiment with Staphylococcus aureus [1], with Klebsiella pneumoniae, in the experiment with Acinetobacter baumannii, in the experiment on Pseudomonas aeruginosa and in the experiment with Klebsiella aerogenes was inactive.
Turning to `COc1cc(C(=O)/C=C/c2ccc(F)cc2)ccc1O`, the outcome in the experiment with Staphylococcus aureus [1], in the experiment with Klebsiella pneumoniae, in the experiment on Acinetobacter baumannii, with Pseudomonas aeruginosa and in the experiment with Klebsiella aerogenes was inactive.

The term MIC denotes the lowest concentration found to suppress growth.
